From ChEMBL document CHEMBL4477257, “In vitro cytotoxicity of novel 2,5,7-tricarbo-substituted indoles derived from 2-amino-5-bromo-3-iodoacetophenone” (2016)
The source made the active and inactive calls. The rule behind the calls is not given here.

Key:
[1] = test system: HeLa; test: Cytotoxicity against human HeLa cells assessed as cell viability at 10 uM after 2 days by MTT assay relative to control; type: functional; conditions: 48 h, read-out: Activity
[2] = test system: HeLa; test: Cytotoxicity against human HeLa cells assessed as reduction in cell viability after 2 days by MTT assay; type: functional; conditions: 48 h, read-out: LC50 (the source's name)
[3] = test system: MCF7; test: Cytotoxicity against human MCF7 cells assessed as cell viability at 0.1 uM after 2 days by MTT assay relative to control; type: functional; conditions: MCF7, 48 h, read-out: Activity
[4] = test system: HeLa; test: Cytotoxicity against human HeLa cells assessed as cell viability at 100 uM after 2 days by MTT assay relative to control; type: functional; conditions: 48 h, read-out: Activity
[5] = test system: MCF7; test: Cytotoxicity against human MCF7 cells assessed as cell viability at 1 uM after 2 days by MTT assay relative to control; type: functional; conditions: MCF7, 48 h, read-out: Activity
[6] = test system: MCF7; test: Cytotoxicity against human MCF7 cells assessed as cell viability at 100 uM after 2 days by MTT assay relative to control; type: functional; conditions: MCF7, 48 h, read-out: Activity
[7] = test system: MCF7; test: Cytotoxicity against human MCF7 cells assessed as reduction in cell viability after 2 days by MTT assay; type: functional; conditions: MCF7, 48 h, read-out: LC50 (the source's name)
[8] = test system: HeLa; test: Cytotoxicity against human HeLa cells assessed as cell viability at 0.1 uM after 2 days by MTT assay relative to control; type: functional; conditions: 48 h, read-out: Activity
[9] = test system: HeLa; test: Cytotoxicity against human HeLa cells assessed as cell viability at 1 uM after 2 days by MTT assay relative to control; type: functional; conditions: 48 h, read-out: Activity
[10] = test system: MCF7; test: Cytotoxicity against human MCF7 cells assessed as cell viability at 10 uM after 2 days by MTT assay relative to control; type: functional; conditions: MCF7, 48 h, read-out: Activity
[11] = test system: HeLa; test: Induction of apoptosis in human HeLa cells assessed as necrotic cells at 5 uM after 48 hrs by Annexin V/propidium iodide staining based flow cytometric analysis (reference value: 21.45 +/- 0.78 %); type: functional
[12] = test system: HeLa; test: Induction of apoptosis in human HeLa cells assessed as late apoptotic cells at 10 uM after 48 hrs by Annexin V/propidium iodide staining based flow cytometric analysis (reference value: 31.80 +/- 0.25 %); type: functional
[13] = test system: HeLa; test: Induction of apoptosis in human HeLa cells assessed as necrotic cells at 10 uM after 48 hrs by Annexin V/propidium iodide staining based flow cytometric analysis (reference value: 21.45 +/- 0.78 %); type: functional
[14] = test system: HeLa; test: Induction of apoptosis in human HeLa cells assessed as early apoptotic cells at 10 uM after 48 hrs by Annexin V/propidium iodide staining based flow cytometric analysis (reference value: 0.05 +/- 0.07 %); type: functional
[15] = test system: HeLa; test: Induction of apoptosis in human HeLa cells assessed as viable cells at 10 uM after 48 hrs by Annexin V/propidium iodide staining based flow cytometric analysis (reference value: 46.00 +/- 0.56 %); type: functional; conditions: read-out: Activity
[16] = test system: HeLa; test: Induction of apoptosis in human HeLa cells assessed as late apoptotic cells at 2.5 uM after 48 hrs by Annexin V/propidium iodide staining based flow cytometric analysis (reference value: 31.80 +/- 0.25 %); type: functional
[17] = test system: HeLa; test: Induction of apoptosis in human HeLa cells assessed as early apoptotic cells at 5 uM after 48 hrs by Annexin V/propidium iodide staining based flow cytometric analysis (reference value: 0.05 +/- 0.07 %); type: functional
[18] = test system: HeLa; test: Induction of apoptosis in human HeLa cells assessed as early apoptotic cells at 2.5 uM after 48 hrs by Annexin V/propidium iodide staining based flow cytometric analysis (reference value: 0.05 +/- 0.07 %); type: functional
[19] = test system: HeLa; test: Induction of apoptosis in human HeLa cells assessed as late apoptotic cells at 5 uM after 48 hrs by Annexin V/propidium iodide staining based flow cytometric analysis (reference value: 31.80 +/- 0.25 %); type: functional
[20] = test system: HeLa; test: Induction of apoptosis in human HeLa cells assessed as viable cells at 5 uM after 48 hrs by Annexin V/propidium iodide staining based flow cytometric analysis (reference value: 46.00 +/- 0.56 %); type: functional; conditions: read-out: Activity
[21] = test system: HeLa; test: Induction of apoptosis in human HeLa cells assessed as DNA fragmentation at 2.5 to 10 uM after 48 hrs by ethidium bromide staining based agarose gel electrophoresis; type: functional, cell-based
[22] = test system: HeLa; test: Induction of apoptosis in human HeLa cells assessed as caspase 3 activation at 2.5 to 10 uM after 24 hrs by colorimetric analysis; type: functional
[23] = test system: HeLa; test: Induction of apoptosis in human HeLa cells assessed as necrotic cells at 2.5 uM after 48 hrs by Annexin V/propidium iodide staining based flow cytometric analysis (reference value: 21.45 +/- 0.78 %); type: functional
[24] = test system: HeLa; test: Induction of apoptosis in human HeLa cells assessed as viable cells at 2.5 uM after 48 hrs by Annexin V/propidium iodide staining based flow cytometric analysis (reference value: 46.00 +/- 0.56 %); type: functional; conditions: read-out: Activity
[25] = test system: HeLa; test: Induction of apoptosis in human HeLa cells after 48 hrs by Annexin V/propidium iodide staining based flow cytometric analysis; type: functional, cell-based

Compound | viability at 10 µM [1] [%] | CC50 [2] [µM] | viability at 0.1 µM [3] [%] | viability at 100 µM [4] [%] | viability at 1 µM [5] [%] | viability at 100 µM [6] [%] | CC50 [7] [µM] | viability at 0.1 µM [8] [%] | viability at 1 µM [9] [%] | viability at 10 µM [10] [%] | further results
COc1ccc(-c2cc(C(C)=O)c3[nH]c(-c4ccccc4)cc3c2)cc1 | 33.9 | 15.5 | 99.2 | 21.1 | 88.8 | 30.8 | 47.8 | 87.9 | 73.1 | 49.5 | 
CC(=O)c1cc(-c2ccc(F)cc2)cc2cc(-c3ccccc3)[nH]c12 | 55.7 | 38 | 98.3 | 24.8 | 82.7 | 36.4 | > 100 | 90.3 | 82.7 | 73.8 | 
COc1ccc(-c2cc3cc(-c4ccc(F)cc4)cc(C(C)=O)c3[nH]2)cc1 | 52 | 42.8 | 97.3 | 46.5 | 96.4 | 47 | > 100 | 81 | 62.9 | 77.5 | 
COc1ccc(-c2cc(C(C)=O)c3[nH]c(-c4ccc(F)cc4)cc3c2)cc1 | 46.5 | 9.46 | 88.4 | 20.6 | 69.7 | 14.8 | 16.8 | 74.5 | 56.1 | 52.9 | 
CC(=O)c1cc(-c2ccc(F)cc2)cc2cc(-c3ccc(F)cc3)[nH]c12 | 47.4 | 13.8 | 99.8 | 9.31 | 93.2 | 20 | 87.4 | 90 | 71.6 | 90.6 | 
CC(=O)c1cc(/C=C/c2ccccc2)cc2cc(-c3ccc(F)cc3)[nH]c12 | 51.9 | 16.1 | 98.4 | 24.2 | 86.9 | 50.1 | > 100 | 82.2 | 60.5 | 69.5 | 
CC(=O)c1cc(/C=C/c2ccc(F)cc2)cc2cc(-c3ccccc3)[nH]c12 | 32.8 | 9.26 | 89.7 | 23.9 | 72.2 | 46.7 | 18.5 | 74.2 | 70 | 46.5 | 
COc1ccc(-c2cc(C(C)=O)c3[nH]c(-c4ccc(OC)cc4)cc3c2)cc1 | 37.1 | 7.13 | 96.5 | 20.2 | 62.6 | 39.9 | 25.2 | 74.5 | 60.2 | 56.4 | Activity [11]: 42.65%; Activity [12]: 47.75%; Activity [13]: 47.4%; Activity [14]: 0.15%; viability at 10 µM [15]: 3.7%; Activity [16]: 12.9%; Activity [17]: 0.15%; Activity [18]: 0.1%; Activity [19]: 37.55%; viability at 5 µM [20]: 20.4%; Activity [21]: Active; fold change (FC) [22]: 4; Activity [23]: 23.2%; viability at 2.5 µM [24]: 65.2%; Activity [25]: Dose-dependent effect
CC(=O)c1cc(/C=C/c2ccc(F)cc2)cc2cc(-c3ccc(F)cc3)[nH]c12 | 41.9 | 5.68 | 98.8 | 20.3 | 82 | 42.2 | > 100 | 72.6 | 53.7 | 67.4 | Activity [11]: 20.4%; Activity [12]: 13.4%; Activity [13]: 64.1%; Activity [14]: 0.35%; viability at 10 µM [15]: 22.4%; Activity [16]: 33.5%; Activity [17]: 0.5%; Activity [18]: 0.2%; Activity [19]: 44%; viability at 5 µM [20]: 35.5%; Activity [21]: Active; fold change (FC) [22]: 3; Activity [23]: 14.35%; viability at 2.5 µM [24]: 52.4%
CC(=O)c1cc(-c2ccccc2)cc2cc(-c3ccc(F)cc3)[nH]c12 | 76.9 | > 100 | 98.5 | 68.3 | 96.8 | 73.3 | > 100 | 91.1 | 85.1 | 91.9 | 
CC(=O)c1cc(-c2ccccc2)cc2cc(-c3ccccc3)[nH]c12 | 60.9 | > 100 | 99.3 | 51.4 | 98.6 | 65.8 | > 100 | 72.3 | 65.8 | 96.2 | 
COc1ccc(-c2cc3cc(/C=C/c4ccc(F)cc4)cc(C(C)=O)c3[nH]2)cc1 | 25.8 | 8.77 | 97.2 | 18.9 | 97.3 | 47.6 | 83 | 90.5 | 67 | 76.5 | 
COc1ccc(-c2cc3cc(-c4ccccc4)cc(C(C)=O)c3[nH]2)cc1 | 51.6 | 18.9 | 87 | 32.8 | 78.1 | 43.5 | > 100 | 80.5 | 61.5 | 64.5 | 
CC(=O)c1cc(/C=C/c2ccccc2)cc2cc(-c3ccccc3)[nH]c12 | 52.5 | 30.8 | 99.5 | 21.2 | 93.4 | 34.1 | > 100 | 99 | 79.8 | 86.5 | 
